The record followed here is US20260114452A1, “ADDITIVES FOR COLOR DRIFT REDUCTION IN COPPER-BASED ANTIMICROBIAL POLYMERIC FORMULATIONS” (CORNING INCORPORATED, priority 2021, published 2026).

Structures can show the parent of a compound that is named as a salt.

Data set [1] can be described thus: Color drift of paint dosed with copper-containing material and copper-coordinating additive (CIE a* before/after peroxide). Format: physicochemical. The settings on record: for a* drift (total drift in color, gap between paint color before and after peroxide testing) / a* endpoint: FIG. 1, Control B paint, Cu:phosphate dibasic 1:0.3 and 1:0.6, other additives 1:0.5 and 1:1; for a* endpoint: after peroxide; for drift in color: FIG. 3, additive neutralized to pH 7 before copper-containing material, 1:1.5 and 1:3 molar ratios; for color drift: 1:1 and 1:3 molar ratios; for color drift / color shift to endpoint / color drift: additive neutralized to pH 7; for color shift to endpoint / color drift: FIG. 10.

Another data set relates to bacteria. Put plainly: Antimicrobial efficacy (logarithmic reduction) of paint samples with copper-containing material and copper-coordinating additive. The class given is cell-based. The settings on record: FIG. 12; 50 g of 1:3 molar ratio mixture per gallon of control paint. The source says:
As used herein, the term “logarithmic reduction” means the negative value of log (Ca/C0), where Ca refers to the colony form unit (“CFU”) number of the antimicrobial surface and C0 refers to the CFU of the control surface that is not an antimicrobial surface. As an example, a 3 logarithmic reduction equals about 99.9% of the microbes killed and a logarithmic reduction of 5 equals about 99.999% of microbes killed. The logarithmic reduction value may be measured according to the ASTM D2574-16 (2016) “Standard Test Method for Resistance of Emulsion Paints in the Container to Attack by Microorganisms.”
The effectiveness of a composition of the present disclosure as a biocidal composition may be measured as a function of the composition's logarithmic reduction. The composition's logarithmic reduction value may be relevant to its ability to kill a wide variety of biological organisms to which the composition is exposed, but may also allow the copper-containing material to act as a preservative for the composition during storage (e.g., in a container such as, but not limited to a tank, a can, a bucket, a drum, a bottle, or a tube). […]

Setting [2] is: FIG. 5, Control N paint, 50 g/gallon.

Consider `CCCCC(CC)COP(=O)(O)O` (centres unmarked) [2EHP, 2-ethylhexylphosphate], for which, in data set [1] (50 g/gallon), the “a* drift (total drift in color, gap between paint color before and after peroxide testing)” value (“a* drift” for short) is listed as −0.25 to −1; the “a* endpoint” value is −0.5 to −1; the drift in color result is listed as “reduced significantly”. In data set [1] (setting [2]), the color drift result is “did not minimize drift” and the “color drift, 1:3 molar ratio relative to 1:1 molar ratio” value is on record as “some reduction in drift”.

On to `CCON` [ethoxyamine hydrochloride], for which, in the data set on bacteria, the “impact on antimicrobial efficacy” value is reported as “minimal impact on antimicrobial efficacy”. Moreover, in data set [1] (1:3 molar ratio, 50 g/gallon), the “color shift to endpoint / color drift” value is “accelerated color shift to endpoint, minimizing color drift”.

For the molecule `Cl.NO` [hydroxylamine hydrochloride], in data set [1] (50 g/gallon), the “a* drift” value is given as about 0; the “a* endpoint” value is given as “did not change the endpoint a*”; the drift in color entry was “reduced significantly”. Besides, the color drift entry in data set [1] (setting [2]) is “minimized color drift by accelerating to endpoint quickly”. Further, the “effect on a* / color endpoint (summary of data)” value in data set [1] (control paint samples, summary) was “accelerated color endpoints and reduced color shifts by starting with more negative a* values”.

For the molecule `COP(=O)(O)O` [methyl phosphate], the “impact on antimicrobial efficacy” value in the data set on bacteria is recorded as “minimal impact on antimicrobial efficacy”. Also, in data set [1] (1:3 molar ratio, 50 g/gallon), the “color shift to endpoint / color drift” value is “accelerated color shift to endpoint, minimizing color drift”.

Consider `O=P(O)(O)Oc1ccccc1` [phenyl phosphate], for which the “color shift to endpoint” value in data set [1] (FIG. 13, 1:3 molar ratio, 50 g/gallon) is recorded as “all copper-coordinating additives except for phenyl phosphate accelerated color shift to endpoint”.

On to `COP(=O)(OC)OC` [trimethyl phosphate], for which the “color shift to endpoint / color drift” value in data set [1] (1:3 molar ratio, 50 g/gallon) is given as “accelerated color shift to endpoint, minimizing color drift”.

Turning to `NC(N)=O` [urea], in data set [1] (50 g/gallon), the “a* drift” value is given as about −1; the “a* endpoint” value is “did not change the endpoint a*”.

phosphate dibasic: in data set [1] (50 g/gallon), the “a* drift” value is listed as −1.75; the “a* endpoint” value was about −1.5.
